Experimental data reported in ChEMBL document CHEMBL1129279, “Structure-antigastrin activity relationships of new spiroglumide amido acid derivatives” (J Med Chem, 1996).

What was measured:
[1] = biological target: Cholecystokinin receptor (Homo sapiens) (UniProt P32239+P32238); assay: Concentration required to inhibit CCK-A receptor/ Concentration required to inhibit CCK-B receptor; type: protein assay
[2] = biological target: T1, Cholecystokinin receptor type A (Rattus norvegicus, UniProt P30551); assay: Inhibition of [125I]CCK-8 binding to Cholecystokinin type A receptor in rat pancreas
T1 sequence (P30551 whole entry): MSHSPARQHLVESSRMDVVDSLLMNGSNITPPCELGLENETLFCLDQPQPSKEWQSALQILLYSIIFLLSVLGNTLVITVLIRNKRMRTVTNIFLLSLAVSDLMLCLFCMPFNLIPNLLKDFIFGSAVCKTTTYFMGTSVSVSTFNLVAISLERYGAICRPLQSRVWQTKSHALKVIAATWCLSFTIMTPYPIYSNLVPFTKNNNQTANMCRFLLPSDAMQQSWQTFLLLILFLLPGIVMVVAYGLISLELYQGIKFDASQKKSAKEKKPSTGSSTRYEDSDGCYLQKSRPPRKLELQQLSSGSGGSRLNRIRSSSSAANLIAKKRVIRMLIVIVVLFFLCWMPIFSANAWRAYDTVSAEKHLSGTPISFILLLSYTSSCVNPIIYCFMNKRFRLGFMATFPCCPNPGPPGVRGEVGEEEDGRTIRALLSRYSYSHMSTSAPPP

[3] = biological target: Gastrin/cholecystokinin type B receptor (Cavia porcellus); assay: Inhibition of binding of [3H]N-Me-N-Leu-CCK-8 to cholecystokinin type B receptor in guinea pig brain cortex

Sequence of Cholecystokinin receptor (Homo sapiens) (P32238 whole entry, looked up): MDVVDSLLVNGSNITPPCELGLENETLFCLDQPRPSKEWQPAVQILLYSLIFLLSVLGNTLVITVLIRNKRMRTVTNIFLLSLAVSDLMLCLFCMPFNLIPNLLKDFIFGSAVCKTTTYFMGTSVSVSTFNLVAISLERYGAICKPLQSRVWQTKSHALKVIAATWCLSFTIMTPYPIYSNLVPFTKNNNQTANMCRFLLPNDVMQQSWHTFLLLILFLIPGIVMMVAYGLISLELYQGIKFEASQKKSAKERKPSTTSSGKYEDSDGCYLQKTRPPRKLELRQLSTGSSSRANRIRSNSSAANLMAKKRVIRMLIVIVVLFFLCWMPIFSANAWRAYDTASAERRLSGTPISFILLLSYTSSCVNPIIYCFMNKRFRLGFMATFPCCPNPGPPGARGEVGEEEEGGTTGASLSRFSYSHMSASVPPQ
Sequence of Cholecystokinin receptor (Homo sapiens) (P32239 whole entry, looked up): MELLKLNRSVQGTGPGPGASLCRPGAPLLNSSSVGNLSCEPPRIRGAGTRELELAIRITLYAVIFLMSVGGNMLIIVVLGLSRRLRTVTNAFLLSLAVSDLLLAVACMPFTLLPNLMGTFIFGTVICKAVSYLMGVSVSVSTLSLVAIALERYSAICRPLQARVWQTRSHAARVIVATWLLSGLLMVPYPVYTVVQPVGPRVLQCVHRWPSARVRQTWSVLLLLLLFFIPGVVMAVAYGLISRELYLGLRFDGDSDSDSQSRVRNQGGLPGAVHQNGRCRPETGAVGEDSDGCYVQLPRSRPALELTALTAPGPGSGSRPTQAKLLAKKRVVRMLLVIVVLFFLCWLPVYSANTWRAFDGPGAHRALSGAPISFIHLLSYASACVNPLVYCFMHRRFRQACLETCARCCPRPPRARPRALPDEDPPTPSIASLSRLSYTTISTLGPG

IC50 (Oryctolagus cuniculus) | Ratio [1] | IC50 [2] | SMILES | also measured
– | 369 | 7.38 µM | O=C(O)CC[C@H](NC(=O)CCC(NC(=O)c1cc(Cl)cc(Cl)c1)C(=O)N1CCC2(CCCC2)CC1)C(=O)Nc1cccc2ccccc12 (stereo partly drawn) | –
Not Active | – | – | O=C(CCC(NC(=O)c1cc(Cl)cc(Cl)c1)C(=O)N1CCC2(CCCC2)CC1)N[C@@H](Cc1ccccc1)C(=O)O (stereo partly drawn) | –
– | – | 3.4 µM | CN(C(=O)CCC(NC(=O)c1cc(Cl)cc(Cl)c1)C(=O)N1CCC2(CCCC2)CC1)[C@H](Cc1c[nH]c2ccccc12)C(=O)O (stereo partly drawn) | –

Continued, molecule first:

SMILES | IC50 (Oryctolagus cuniculus) | Ratio [1] | IC50 [2] | also measured
O=C(O)CC[C@@H](NC(=O)CCC(NC(=O)c1cc(Cl)cc(Cl)c1)C(=O)N1CCC2(CCCC2)CC1)C(=O)NCCC12C[C@H]3C[C@@H](C1)C[C@@H](C2)C3 (stereo partly drawn) | Not Active | – | – | –
O=C(O)CC[C@@H](NC(=O)CCC(NC(=O)c1cc(Cl)cc(Cl)c1)C(=O)N1CCC2(CCCC2)CC1)C(=O)NC1[C@H]2C[C@@H]3C[C@@H](C[C@H]1C3)C2 (stereo partly drawn) | Not Active | – | – | –
O=C(O)CC[C@@H](NC(=O)c1cc(Cl)cc(Cl)c1)C(=O)N1CCC2(CCCC2)CC1 [SPIROGLUMIDE] | – | 9.6 | – | IC50 [3]: 1.4 µM
